Source: patent US20240365781A1, “SYNERGISTICALLY EFFECTIVE HERBICIDE COMPOSITION COMPRISING PELARGONIC ACID AND FLAZASULFURON” (Belchim Crop Protection NV, priority 2017, published 2024)

Experiments:
Format in all cases: in vivo
Lolium multiflorum = test: post-emergence field trial under rows of apple trees, 150-200 L water/ha (Examples 10-12); details: Lolium multiflorum/88 d
Protocol: (§1) Herbicidal activity was determined by performing a post-emergence test. […] The corresponding mixture was in the form of a spray solution. Besides, spray solutions of individual compositions comprising pelargonic acid or flazasulfuron were used.
(§2) The spray solution was applied on plants of unwanted vegetation present on fields where perennial crops were grown.
(§3) After 5 to 88 days after application of the spray solution, the degree of damage to the unwanted vegetation is rated in % of plants of unwanted vegetation that were killed. Tests were performed on test fields (field trials).

Veronica persicae = test: as above
Protocol: as §1, §2, §3

Trifolium repens = test: as above
Protocol: as §1, §2, §3

Poa annua = test: as above
Protocol: as §1, §2, §3

Senecio vulgaris = test: as above
Protocol: as §1, §2, §3

Capsella bursa-pastoris = test: as above
Protocol: as §1, §2, §3

[1] = system: Digitaria sanguinalis and Setaria pumila; test: post-emergence field trial under rows of vines, 150-200 L water/ha (Examples 6-9); details: flazasulfuron 40 g/ha
Excerpt: The expected activity of a given combination of two or three herbicides can be calculated as follows according to a calculation method by Colby (cf. COLBY, S. R.: “Calculating synergistic and antagonistic responses of herbicide combinations”, • Weeds 15, pages 20-22, 1967): • If X=% damage by herbicide (A) at an application rate of m g/ha, • Y=% damage by herbicide (B) at an application rate of n g/ha, • E=the expected damage by herbicides (A) and (B) at application rates of m and n […] and, • then for a combination:
Individual compositions comprising pelargonic acid or flazasulfuron are compared with a herbicide composition according to the invention comprising pelargonic acid and flazasulfuron.
as §1, §2, §3

SMILES: CCCCCCCCC(=O)O [Pelargonic acid, nonanoic acid]
- herbicidal effect (%) (Lolium multiflorum; 5440 g of active compound/ha): 0%
- herbicidal effect (%) (Lolium multiflorum; 8160 g of active compound/ha): 0%
- herbicidal effect (%) (Lolium multiflorum; 10880 g of active compound/ha): 0%
- herbicidal effect (%) (Veronica persicae; Veronica persicae/7 d, 5440 g of active compound/ha): 56%
- herbicidal effect (%) (Veronica persicae; Veronica persicae/7 d, 8160 g of active compound/ha): 70%
- herbicidal effect (%) (Veronica persicae; Veronica persicae/7 d, 10880 g of active compound/ha): 73%
- herbicidal effect (%) (Veronica persicae; Veronica persicae/16 d, 5440 g of active compound/ha): 30%
- herbicidal effect (%) (Veronica persicae; Veronica persicae/16 d, 8160 g of active compound/ha): 48%
- herbicidal effect (%) (Veronica persicae; Veronica persicae/16 d, 10880 g of active compound/ha): 45%
- herbicidal effect (%) (Veronica persicae; Veronica persicae/26 d, 5440 g of active compound/ha): 0%
- herbicidal effect (%) (Veronica persicae; Veronica persicae/26 d, 8160 g of active compound/ha): 0%
- herbicidal effect (%) (Veronica persicae; Veronica persicae/26 d, 10880 g of active compound/ha): 0%
- herbicidal effect (%) (Veronica persicae; Veronica persicae/59 d, 5440 g of active compound/ha): 0%
- herbicidal effect (%) (Veronica persicae; Veronica persicae/59 d, 8160 g of active compound/ha): 0%
- herbicidal effect (%) (Veronica persicae; Veronica persicae/59 d, 10880 g of active compound/ha): 0%
- herbicidal effect (%) (Trifolium repens; Trifolium repens/7 d, 5440 g of active compound/ha): 59%
- herbicidal effect (%) (Trifolium repens; Trifolium repens/7 d, 8160 g of active compound/ha): 73%
- herbicidal effect (%) (Trifolium repens; Trifolium repens/7 d, 10880 g of active compound/ha): 75%
- herbicidal effect (%) (Trifolium repens; Trifolium repens/16 d, 5440 g of active compound/ha): 9%
- herbicidal effect (%) (Trifolium repens; Trifolium repens/16 d, 8160 g of active compound/ha): 13%
- herbicidal effect (%) (Trifolium repens; Trifolium repens/16 d, 10880 g of active compound/ha): 23%
- herbicidal effect (%) (Trifolium repens; Trifolium repens/26 d, 5440 g of active compound/ha): 0%
- herbicidal effect (%) (Trifolium repens; Trifolium repens/26 d, 8160 g of active compound/ha): 0%
- herbicidal effect (%) (Trifolium repens; Trifolium repens/26 d, 10880 g of active compound/ha): 0%
- herbicidal effect (%) (Trifolium repens; Trifolium repens/59 d, 5440 g of active compound/ha): 0%
- herbicidal effect (%) (Trifolium repens; Trifolium repens/59 d, 8160 g of active compound/ha): 0%
- herbicidal effect (%) (Trifolium repens; Trifolium repens/59 d, 10880 g of active compound/ha): 0%
- herbicidal effect (%) (Poa annua; Poa annua/6 d, 5440 g of active compound/ha): 23%
- herbicidal effect (%) (Poa annua; Poa annua/6 d, 8160 g of active compound/ha): 40%
- herbicidal effect (%) (Poa annua; Poa annua/6 d, 10880 g of active compound/ha): 45%
- herbicidal effect (%) (Poa annua; Poa annua/16 d, 5440 g of active compound/ha): 55%
- herbicidal effect (%) (Poa annua; Poa annua/16 d, 8160 g of active compound/ha): 58%
- herbicidal effect (%) (Poa annua; Poa annua/16 d, 10880 g of active compound/ha): 60%
- herbicidal effect (%) (Poa annua; Poa annua/30 d, 5440 g of active compound/ha): 53%
- herbicidal effect (%) (Poa annua; Poa annua/30 d, 8160 g of active compound/ha): 55%
- herbicidal effect (%) (Poa annua; Poa annua/30 d, 10880 g of active compound/ha): 65%
- herbicidal effect (%) (Poa annua; Poa annua/57 d, 5440 g of active compound/ha): 0%
- herbicidal effect (%) (Poa annua; Poa annua/57 d, 8160 g of active compound/ha): 0%
- herbicidal effect (%) (Poa annua; Poa annua/57 d, 10880 g of active compound/ha): 0%
- herbicidal effect (%) (Poa annua; Poa annua/78 d, 5440 g of active compound/ha): 0%
- herbicidal effect (%) (Poa annua; Poa annua/78 d, 8160 g of active compound/ha): 0%
- herbicidal effect (%) (Poa annua; Poa annua/78 d, 10880 g of active compound/ha): 1%
- herbicidal effect (%) (Senecio vulgaris; Senecio vulgaris/6 d, 5440 g of active compound/ha): 26%
- herbicidal effect (%) (Senecio vulgaris; Senecio vulgaris/6 d, 8160 g of active compound/ha): 29%
- herbicidal effect (%) (Senecio vulgaris; Senecio vulgaris/6 d, 10880 g of active compound/ha): 29%
- herbicidal effect (%) (Senecio vulgaris; Senecio vulgaris/28 d, 5440 g of active compound/ha): 9%
- herbicidal effect (%) (Senecio vulgaris; Senecio vulgaris/28 d, 10880 g of active compound/ha): 11%
- herbicidal effect (%) (Senecio vulgaris; Senecio vulgaris/58 d, 10880 g of active compound/ha): 33%
- herbicidal effect (%) (Capsella bursa-pastoris; Capsella bursa-pastoris/6 d, 5440 g of active compound/ha): 18%
- herbicidal effect (%) (Capsella bursa-pastoris; Capsella bursa-pastoris/6 d, 8160 g of active compound/ha): 45%
- herbicidal effect (%) (Capsella bursa-pastoris; Capsella bursa-pastoris/6 d, 10880 g of active compound/ha): 45%
- herbicidal effect (%) (Capsella bursa-pastoris; Capsella bursa-pastoris/16 d, 5440 g of active compound/ha): 53%
- herbicidal effect (%) (Capsella bursa-pastoris; Capsella bursa-pastoris/16 d, 8160 g of active compound/ha): 40%
- herbicidal effect (%) (Capsella bursa-pastoris; Capsella bursa-pastoris/16 d, 10880 g of active compound/ha): 55%
- herbicidal effect (%) (Capsella bursa-pastoris; Capsella bursa-pastoris/30 d, 5440 g of active compound/ha): 55%
- herbicidal effect (%) (Capsella bursa-pastoris; Capsella bursa-pastoris/30 d, 8160 g of active compound/ha): 53%
- herbicidal effect (%) (Capsella bursa-pastoris; Capsella bursa-pastoris/30 d, 10880 g of active compound/ha): 60%
- herbicidal effect (%) (Capsella bursa-pastoris; Capsella bursa-pastoris/57 d, 5440 g of active compound/ha): 0%
- herbicidal effect (%) (Capsella bursa-pastoris; Capsella bursa-pastoris/57 d, 8160 g of active compound/ha): 0%
- herbicidal effect (%) (Capsella bursa-pastoris; Capsella bursa-pastoris/57 d, 10880 g of active compound/ha): 0%
- herbicidal effect ([1]; 7 d, pelargonic acid 5440 g/ha): 97%
- herbicidal effect ([1]; 7 d, pelargonic acid 6800 g/ha): 19%
- herbicidal effect ([1]; 7 d, pelargonic acid 8160 g/ha): 68%
- herbicidal effect ([1]; 7 d, pelargonic acid 10880 g/ha): 70%
- herbicidal effect ([1]; 14 d, pelargonic acid 5440 g/ha): 25%
- herbicidal effect ([1]; 14 d, pelargonic acid 8160 g/ha): 19%
- herbicidal effect ([1]; 14 d, pelargonic acid 10880 g/ha): 38%
- herbicidal effect ([1]; 28 d, pelargonic acid 5440 g/ha): 0%
- herbicidal effect ([1]; 28 d, pelargonic acid 6800 g/ha): 0%
- herbicidal effect ([1]; 28 d, pelargonic acid 8160 g/ha): 0%
- herbicidal effect ([1]; 28 d, pelargonic acid 10880 g/ha): 31%
- herbicidal effect ([1]; 65 d, pelargonic acid 5440 g/ha): 0%
- herbicidal effect ([1]; 65 d, pelargonic acid 8160 g/ha): 0%
- herbicidal effect ([1]; 65 d, pelargonic acid 10880 g/ha): 0%
